Assay results: PubChem BioAssay AID330 (DTP/NCI, 2004)
Where “and” joins values, the source holds several entries; their conditions need not be identical. Equal values may be shown once. Toxic doses and inconclusive results are not listed. How the source made its calls: active means survival T/C of 150% or more; inactive means T/C below 125% in these data.

Tested on: P388 leukemia ip, CD2F1 mice, survival T/C
Assay: NCI In Vivo Anticancer Drug Screen. Data for tumor model P388 Leukemia (intraperitoneal) in CD2F1 (CDF1) mice
Conditions: endpoint: median survival time, higher = longer survival
How it was run: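 Mice carrying the transplanted tumor received test compound or vehicle. Survival was recorded in each group, and the value is the treated-group measurement divided by that of the vehicle-treated control group.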

[1] = dose: 25.0 mg/kg/injection, schedule: Q01DX005 (ip), vehicle: Klucel (hydroxypropylcellulose) (HPC)
[2] = dose: 100.0 mg/kg/injection, schedule: Q04DX003 (ip), vehicle: saline with Tween-80
[3] = dose: 200.0 mg/kg/injection, schedule: Q04DX003 (ip), vehicle: saline with Tween-80
[4] = dose: 100.0 mg/kg/injection, schedule: Q01DX009 (ip), vehicle: Klucel (hydroxypropylcellulose) (HPC)
[5] = dose: 200.0 mg/kg/injection, schedule: Q01DX009 (ip), vehicle: Klucel (hydroxypropylcellulose) (HPC)
[6] = dose: 100.0 mg/kg/injection, schedule: Q01DX009 (ip), vehicle: saline with Tween-80
[7] = dose: 200.0 mg/kg/injection, schedule: Q01DX009 (ip), vehicle: saline with Tween-80
[8] = dose: 50.0 mg/kg/injection, schedule: Q01DX005 (ip), vehicle: saline with Tween-80
[9] = dose: 100.0 mg/kg/injection, schedule: Q01DX005 (ip), vehicle: saline with Tween-80

Measured: T/C

COc1cccc2c1C(=O)c1c(O)c3c(c(O)c1C2=O)[C@@H](OC)[C@@](O)(C(C)=O)C[C@@H]3OC1CC(N)C(O)C(C)O1 (some centres undefined)
inactive: dose: 3.13 mg/kg/injection, schedule: Q04DX003 (ip), vehicle: saline 110 % of control | dose: 6.25 mg/kg/injection, schedule: Q04DX003 (ip), vehicle: saline 115 % of control

Nc1ccccc1SC1=C(Cl)C(=O)c2ccccc2C1=O
inactive: dose: 6.25 mg/kg/injection, schedule: Q01DX009 (ip), vehicle: saline with Tween-80 95 % of control | dose: 12.5 mg/kg/injection, schedule: Q01DX009 (ip), vehicle: saline with Tween-80 94 % of control | dose: 25.0 mg/kg/injection, schedule: Q01DX009 (ip), vehicle: saline with Tween-80 103 % of control

C[Si](C)(C)C12CC3(CCCCC3)C1NC(=O)NC2=O (centres undefined)
inactive: [1] 108 % of control | dose: 50.0 mg/kg/injection, schedule: Q01DX005 (ip), vehicle: Klucel (hydroxypropylcellulose) (HPC) 96 % of control | dose: 100.0 mg/kg/injection, schedule: Q01DX005 (ip), vehicle: Klucel (hydroxypropylcellulose) (HPC) 90 % of control | dose: 200.0 mg/kg/injection, schedule: Q01DX005 (ip), vehicle: Klucel (hydroxypropylcellulose) (HPC) 88 % of control

CN(CCO)c1ncnc2c1ncn2C
inactive: dose: 50.0 mg/kg/injection, schedule: Q01DX005 (ip), vehicle: saline 99 % of control | dose: 100.0 mg/kg/injection, schedule: Q01DX005 (ip), vehicle: saline 108 % of control | dose: 200.0 mg/kg/injection, schedule: Q01DX005 (ip), vehicle: saline 100 % of control

COC1OCN(C(C)(C)C)CC1(C)C (centres undefined)
inactive: dose: 15.0 mg/kg/injection, schedule: Q01DX009 (ip), vehicle: saline with Tween-80 95 % of control | dose: 30.0 mg/kg/injection, schedule: Q01DX009 (ip), vehicle: saline with Tween-80 102 % of control | dose: 60.0 mg/kg/injection, schedule: Q01DX009 (ip), vehicle: saline with Tween-80 121 % of control

COc1cc(C=C2C(=O)C=CC2=O)cc(OC)c1O
inactive: dose: 1.25 mg/kg/injection, schedule: Q04DX002 (ip), vehicle: saline with Tween-80 102 % of control | dose: 2.5 mg/kg/injection, schedule: Q04DX002 (ip), vehicle: saline with Tween-80 103 % of control | dose: 5.0 mg/kg/injection, schedule: Q04DX002 (ip), vehicle: saline with Tween-80 102 % of control

Cc1cc(NC(=O)c2ccc(C(=O)Nc3ccc(C4=NCCN4)c(C)c3)cc2)ccc1C1=NCCN1
inactive: [2] 118 % of control | [3] 104 % of control | dose: 400.0 mg/kg/injection, schedule: Q04DX003 (ip), vehicle: saline with Tween-80 104 % of control

C=C1CCC2C(OC(=O)C2(O)CO)C2C(=C)C(O)CC12 (centres undefined)
inactive: dose: 9.38 mg/kg/injection, schedule: Q01DX005 (ip), vehicle: Klucel (hydroxypropylcellulose) (HPC) 103 % of control | dose: 18.75 mg/kg/injection, schedule: Q01DX005 (ip), vehicle: Klucel (hydroxypropylcellulose) (HPC) 105 % of control | dose: 37.5 mg/kg/injection, schedule: Q01DX005 (ip), vehicle: Klucel (hydroxypropylcellulose) (HPC) 100 % of control | dose: 75.0 mg/kg/injection, schedule: Q01DX005 (ip), vehicle: Klucel (hydroxypropylcellulose) (HPC) 104 % of control | dose: 150.0 mg/kg/injection, schedule: Q01DX005 (ip), vehicle: Klucel (hydroxypropylcellulose) (HPC) 113 % of control

O=S(=O)(O)CCc1nn[nH]n1
inactive: dose: 100.0 mg/kg/injection, schedule: Q01DX001 (ip), vehicle: saline 100 % of control | dose: 200.0 mg/kg/injection, schedule: Q01DX001 (ip), vehicle: saline 101 % of control | dose: 400.0 mg/kg/injection, schedule: Q01DX001 (ip), vehicle: saline 101 % of control

Cn1c2ccccc2c(=O)c2c(O)cc3c(c21)CC(C1(C)CO1)O3 (centres undefined)
inactive: dose: 2.0 mg/kg/injection, schedule: Q01DX005 (ip), vehicle: Klucel (hydroxypropylcellulose) (HPC) 99 % of control | dose: 4.0 mg/kg/injection, schedule: Q01DX005 (ip), vehicle: Klucel (hydroxypropylcellulose) (HPC) 105 % of control and 107 % of control | dose: 8.0 mg/kg/injection, schedule: Q01DX005 (ip), vehicle: Klucel (hydroxypropylcellulose) (HPC) 103 % of control and 107 % of control | dose: 16.0 mg/kg/injection, schedule: Q01DX005 (ip), vehicle: Klucel (hydroxypropylcellulose) (HPC) 108 % of control and 116 % of control

CC1=C(C)C(=O)OC(C(C)(O)C2(O)CCC3(O)C4CC(Cl)C5(O)C(O)C=CC(=O)C5(C)C4CCC32C)C1 (centres undefined)
inactive: dose: 10.0 mg/kg/injection, schedule: Q01DX005 (ip), vehicle: saline + alcohol 106 % of control | dose: 20.0 mg/kg/injection, schedule: Q01DX005 (ip), vehicle: saline + alcohol 108 % of control | dose: 25.0 mg/kg/injection, schedule: Q01DX005 (ip), vehicle: saline + alcohol 104 % of control | dose: 40.0 mg/kg/injection, schedule: Q01DX005 (ip), vehicle: saline + alcohol 112 % of control | dose: 50.0 mg/kg/injection, schedule: Q01DX005 (ip), vehicle: saline + alcohol 100 % of control and 104 % of control | dose: 80.0 mg/kg/injection, schedule: Q01DX005 (ip), vehicle: saline + alcohol 117 % of control | dose: 100.0 mg/kg/injection, schedule: Q01DX005 (ip), vehicle: saline + alcohol 104 % of control (2×) and 120 % of control | dose: 200.0 mg/kg/injection, schedule: Q01DX005 (ip), vehicle: saline + alcohol 99 % of control and 109 % of control and 111 % of control

CCCCCCCCC(=O)c1c(OC)oc(/C=N/NC(N)=S)cc1=O
inactive: [4] 86 % of control | [5] 91 % of control | dose: 400.0 mg/kg/injection, schedule: Q01DX009 (ip), vehicle: Klucel (hydroxypropylcellulose) (HPC) 98 % of control

O=c1[nH]c(=O)n2c(c1-c1ccccc1)OC(CBr)C2 (centres undefined)
inactive: dose: 50.0 mg/kg/injection, schedule: Q01DX009 (ip), vehicle: saline with Tween-80 98 % of control | [6] 98 % of control | [7] 86 % of control

CCC1N=C(N)N=C(N)N1c1ccc(Cl)c(Cl)c1 (centres undefined)
inactive: dose: 3.12 mg/kg/injection, schedule: Q01DX005 (ip), vehicle: Klucel (hydroxypropylcellulose) (HPC) 104 % of control and 96 % of control | dose: 6.25 mg/kg/injection, schedule: Q01DX005 (ip), vehicle: Klucel (hydroxypropylcellulose) (HPC) 102 % of control and 105 % of control and 107 % of control | dose: 12.5 mg/kg/injection, schedule: Q01DX005 (ip), vehicle: Klucel (hydroxypropylcellulose) (HPC) 113 % of control and 114 % of control and 97 % of control | [1] 111 % of control and 114 % of control

COc1ccc(Cl)cc1NC(=O)c1ccccc1F
inactive: dose: 50.0 mg/kg/injection, schedule: Q01DX009 (ip), vehicle: Klucel (hydroxypropylcellulose) (HPC) 120 % of control | [4] 104 % of control | [5] 118 % of control

COc1nc2cc3c(cc2n2cccc12)oc1ccccc13
inactive: dose: 25.0 mg/kg/injection, schedule: Q01DX005 (ip), vehicle: saline with Tween-80 95 % of control | [8] 96 % of control | [9] 102 % of control

O=C(O)c1ccc(CCCBr)cc1
inactive: [6] 105 % of control | [7] 100 % of control | dose: 400.0 mg/kg/injection, schedule: Q01DX009 (ip), vehicle: saline with Tween-80 97 % of control

CCN(CC)C(CC(=O)C(C)(C)C)=NCCCN1CCN(C)CC1
inactive: dose: 50.0 mg/kg/injection, schedule: Q01DX009 (ip), vehicle: saline 98 % of control | dose: 100.0 mg/kg/injection, schedule: Q01DX009 (ip), vehicle: saline 100 % of control

COCCCNC(=O)c1nc2ccccc2c(=O)n1NC(=O)Cc1ccccc1
inactive: [8] 95 % of control | [9] 95 % of control | dose: 200.0 mg/kg/injection, schedule: Q01DX005 (ip), vehicle: saline with Tween-80 95 % of control

CN(C)S(=O)(=O)c1cccc(N)c1
inactive: dose: 25.0 mg/kg/injection, schedule: Q04DX003 (ip), vehicle: saline with Tween-80 93 % of control | dose: 50.0 mg/kg/injection, schedule: Q04DX003 (ip), vehicle: saline with Tween-80 95 % of control | [2] 100 % of control | [3] 94 % of control
